Values joined by “and” are separate entries in the source; they are usually repeats but may differ in a detail not shown here. Equal values may be shown once. Read-outs that look alike come from different tables or passages of the source.
Legend:
mu (MOP) (h) = target: T1, mu (MOP) (h) (Homo sapiens, UniProt P35372); assay: In vitro CEREP profiling, mu (MOP) (h) (agonist radioligand); type: binding; settings: test compound concentration 10 uM; for inhibition at 10 µM: read-out: perc_inhibition (% inhibition of the binding of a ligand specific for each target)
T1 construct: purchased Eurofins Cerep (SafetyScreen44), recognised from the panel format
T1 sequence (P35372 whole entry): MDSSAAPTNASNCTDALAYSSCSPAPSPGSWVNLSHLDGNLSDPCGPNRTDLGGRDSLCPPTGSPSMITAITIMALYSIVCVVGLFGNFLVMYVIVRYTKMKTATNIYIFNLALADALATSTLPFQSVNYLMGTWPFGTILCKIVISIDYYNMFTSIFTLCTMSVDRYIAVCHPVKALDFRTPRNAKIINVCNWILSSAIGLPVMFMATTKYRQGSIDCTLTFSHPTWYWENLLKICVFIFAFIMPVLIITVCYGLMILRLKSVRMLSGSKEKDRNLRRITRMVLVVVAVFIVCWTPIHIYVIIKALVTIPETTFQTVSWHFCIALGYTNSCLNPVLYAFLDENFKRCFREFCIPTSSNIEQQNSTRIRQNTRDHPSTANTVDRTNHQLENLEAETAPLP
From the text: (§1) Supplement media-1.zip/Safety_Panel_Profile.csv, table | column: perc_inhibition

5-HT1A (h) = target: T2, 5-HT1A (h) (Homo sapiens, UniProt P08908); assay: In vitro CEREP profiling, 5-HT1A (h) (agonist radioligand); type: binding; settings: test compound concentration 10 uM; for inhibition at 10 µM: read-out: perc_inhibition (% inhibition of the binding of a ligand specific for each target)
T2 construct: purchased Eurofins Cerep (SafetyScreen44), recognised from the panel format
T2 sequence (P08908 1-422): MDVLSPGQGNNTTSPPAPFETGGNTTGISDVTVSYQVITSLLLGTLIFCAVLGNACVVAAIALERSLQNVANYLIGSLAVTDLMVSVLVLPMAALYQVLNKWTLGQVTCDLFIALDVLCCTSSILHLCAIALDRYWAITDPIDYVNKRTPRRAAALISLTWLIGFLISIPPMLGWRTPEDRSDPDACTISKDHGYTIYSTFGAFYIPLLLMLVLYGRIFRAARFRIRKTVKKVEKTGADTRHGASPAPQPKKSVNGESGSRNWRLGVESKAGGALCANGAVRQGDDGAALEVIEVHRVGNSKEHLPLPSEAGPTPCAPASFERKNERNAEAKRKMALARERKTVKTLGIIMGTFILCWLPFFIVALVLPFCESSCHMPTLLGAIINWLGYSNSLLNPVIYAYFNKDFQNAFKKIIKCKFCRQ
From the text: as §1

MERS-CoV = assay: microbe, parasite or virus in culture; type: cell-based; settings: for EC50 / EC90: Middle East respiratory syndrome-related coronavirus, VeroE6/TMPRSS2; for perc_max_measured / perc_min_measured: Vero E6/TMPRSS2 MERS-CoV antiviral effect with P-gp inhibitor; for perc_max_measured: maximum measured response of dose series; for perc_min_measured: minimum measured response of dose series
[1] = In vitro rat hepatocyte stability; type: in vitro ADME
From the text: Supplement media-1.zip/Hepatocyte_Stability.csv, table | column: clint; t_half

[2] = test system: SARS-CoV-2, isolate USA-WA1/2020; assay: microbe, parasite or virus in culture; type: cell-based
[3] = In vitro rat SD liver microsomal stability; type: in vitro ADME
From the text: Supplement media-1.zip/Hepatic_Microsomal_Stability.csv, table | column: clint; t_half

V1a (h) = target: T3, V1a (h) (Homo sapiens, UniProt P37288); assay: In vitro CEREP profiling, V1a (h) (agonist radioligand); type: binding; settings: test compound concentration 10 uM; for inhibition at 10 µM: read-out: perc_inhibition, % inhibition of the binding of a ligand specific for each target
T3 construct: purchased Eurofins Cerep (SafetyScreen44), recognised from the panel format
T3 sequence (P37288 whole entry): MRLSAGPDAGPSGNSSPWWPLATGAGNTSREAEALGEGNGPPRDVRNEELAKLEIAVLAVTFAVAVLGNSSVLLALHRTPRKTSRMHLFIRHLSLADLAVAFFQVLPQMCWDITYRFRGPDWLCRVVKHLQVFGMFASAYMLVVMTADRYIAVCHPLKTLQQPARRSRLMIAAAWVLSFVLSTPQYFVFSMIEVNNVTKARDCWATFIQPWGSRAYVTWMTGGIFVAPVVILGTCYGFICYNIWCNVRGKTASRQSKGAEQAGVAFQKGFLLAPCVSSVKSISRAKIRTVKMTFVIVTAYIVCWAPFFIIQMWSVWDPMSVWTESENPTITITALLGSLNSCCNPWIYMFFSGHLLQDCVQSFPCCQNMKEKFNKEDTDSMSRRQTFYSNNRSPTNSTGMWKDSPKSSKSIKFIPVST
From the text: as §1

KV channel = assay: In vitro CEREP profiling, KV channel (antagonist radioligand); type: binding; settings: test compound concentration 10 uM
From the text: as §1

human CHRM2 (M2) = target: T4, human CHRM2 (M2) (Homo sapiens, UniProt P08172); assay: Eurofins CEREP panel, M2; type: binding; settings: for inhibition at 10 µM: read-out: perc_inhibition (% inhibition of the binding of a ligand specific for each target)
T4 construct: purchased Eurofins Cerep (SafetyScreen44), recognised from the panel format
T4 sequence (P08172 1-466): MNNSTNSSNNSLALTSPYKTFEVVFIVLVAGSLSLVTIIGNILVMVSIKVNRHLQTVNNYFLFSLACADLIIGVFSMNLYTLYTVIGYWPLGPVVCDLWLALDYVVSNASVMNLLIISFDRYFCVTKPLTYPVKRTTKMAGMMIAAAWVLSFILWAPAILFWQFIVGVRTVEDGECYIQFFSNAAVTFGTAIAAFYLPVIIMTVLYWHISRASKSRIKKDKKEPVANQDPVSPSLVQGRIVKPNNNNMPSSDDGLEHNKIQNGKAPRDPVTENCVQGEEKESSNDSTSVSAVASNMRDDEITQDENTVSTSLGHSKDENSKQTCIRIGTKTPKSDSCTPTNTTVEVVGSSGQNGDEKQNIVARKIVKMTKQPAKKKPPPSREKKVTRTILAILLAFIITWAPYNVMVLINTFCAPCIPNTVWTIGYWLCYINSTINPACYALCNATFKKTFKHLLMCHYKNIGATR

M1 (h) = target: T5, M1 (h) (Homo sapiens, UniProt P11229); assay: In vitro CEREP profiling, M1 (h) (antagonist radioligand); type: binding; settings: test compound concentration 10 uM; for inhibition at 10 µM: read-out: perc_inhibition (% inhibition of the binding of a ligand specific for each target)
T5 construct: purchased Eurofins Cerep (SafetyScreen44), recognised from the panel format
T5 sequence (P11229 1-460): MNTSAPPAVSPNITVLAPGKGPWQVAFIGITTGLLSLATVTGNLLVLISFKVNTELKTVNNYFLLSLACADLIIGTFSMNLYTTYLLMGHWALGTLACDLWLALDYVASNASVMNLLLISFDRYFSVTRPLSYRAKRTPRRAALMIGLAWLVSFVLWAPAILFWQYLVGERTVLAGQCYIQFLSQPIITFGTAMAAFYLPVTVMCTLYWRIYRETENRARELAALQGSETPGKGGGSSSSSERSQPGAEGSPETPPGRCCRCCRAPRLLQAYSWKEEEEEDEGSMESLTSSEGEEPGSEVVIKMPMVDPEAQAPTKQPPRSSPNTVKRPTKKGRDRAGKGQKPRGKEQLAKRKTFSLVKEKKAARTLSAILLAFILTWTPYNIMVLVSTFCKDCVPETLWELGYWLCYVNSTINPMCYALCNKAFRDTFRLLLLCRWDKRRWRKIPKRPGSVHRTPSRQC
From the text: as §1

dopamine transporter (h) = target: T6, dopamine transporter (h) (Homo sapiens, UniProt Q01959); assay: In vitro CEREP profiling, dopamine transporter (h) (antagonist radioligand); type: binding; settings: test compound concentration 10 uM; for inhibition at 10 µM: read-out: perc_inhibition, % inhibition of the binding of a ligand specific for each target
T6 construct: purchased Eurofins Cerep (SafetyScreen44), recognised from the panel format
T6 sequence (Q01959 whole entry): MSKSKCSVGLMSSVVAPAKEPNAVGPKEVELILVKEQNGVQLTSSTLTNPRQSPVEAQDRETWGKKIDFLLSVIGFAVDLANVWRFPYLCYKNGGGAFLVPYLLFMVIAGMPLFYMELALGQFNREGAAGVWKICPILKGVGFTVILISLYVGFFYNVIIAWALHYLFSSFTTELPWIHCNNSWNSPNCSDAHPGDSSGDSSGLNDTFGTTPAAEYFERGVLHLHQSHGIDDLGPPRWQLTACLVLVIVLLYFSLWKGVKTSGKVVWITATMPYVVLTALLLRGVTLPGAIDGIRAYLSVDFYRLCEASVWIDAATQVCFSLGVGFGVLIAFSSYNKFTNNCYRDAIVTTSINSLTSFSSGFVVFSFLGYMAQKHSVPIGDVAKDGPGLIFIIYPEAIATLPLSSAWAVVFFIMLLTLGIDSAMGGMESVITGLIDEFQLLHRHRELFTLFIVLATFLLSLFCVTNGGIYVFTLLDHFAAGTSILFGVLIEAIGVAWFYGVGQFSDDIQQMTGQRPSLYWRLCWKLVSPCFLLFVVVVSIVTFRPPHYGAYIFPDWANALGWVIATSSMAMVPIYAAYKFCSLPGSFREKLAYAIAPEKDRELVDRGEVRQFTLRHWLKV
From the text: as §1

CCK1 (CCKA) (h) = target: T7, CCK1 (CCKA) (h) (Homo sapiens, UniProt P32238); assay: In vitro CEREP profiling, CCK1 (CCKA) (h) (agonist radioligand); type: binding; settings: test compound 10 uM; for inhibition at 10 µM: read-out: perc_inhibition (% inhibition of the binding of a ligand specific for each target)
T7 construct: purchased Eurofins Cerep (SafetyScreen44), recognised from the panel format
T7 sequence (P32238 1-428): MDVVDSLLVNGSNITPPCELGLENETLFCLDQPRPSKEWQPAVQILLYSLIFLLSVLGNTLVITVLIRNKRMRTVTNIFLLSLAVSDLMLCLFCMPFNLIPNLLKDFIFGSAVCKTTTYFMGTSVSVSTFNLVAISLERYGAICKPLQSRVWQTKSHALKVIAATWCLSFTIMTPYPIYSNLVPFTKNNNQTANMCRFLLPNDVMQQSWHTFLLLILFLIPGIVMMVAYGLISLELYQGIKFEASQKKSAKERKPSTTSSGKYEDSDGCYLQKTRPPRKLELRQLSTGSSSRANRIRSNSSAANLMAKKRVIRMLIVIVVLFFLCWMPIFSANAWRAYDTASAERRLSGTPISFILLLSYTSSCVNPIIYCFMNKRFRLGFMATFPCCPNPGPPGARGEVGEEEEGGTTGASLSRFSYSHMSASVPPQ
From the text: as §1

in vitro = settings: human, hela-ace2 cells, 50.0
[4] = HeLa-ACE2 SARS-CoV-2 antiviral effect without P-gp inhibitor, maximum measured response
[5] = HeLa-ACE2 SARS-CoV-2 antiviral effect without P-gp inhibitor, maximum measured response of dose series
[6] = HeLa-ACE2 SARS-CoV-2 antiviral effect without P-gp inhibitor, minimum measured response
[7] = HeLa-ACE2 SARS-CoV-2 antiviral effect without P-gp inhibitor, minimum measured response of dose series
[8] = Severe acute respiratory syndrome coronavirus 2, HeLa-ACE2
[9] = Severe acute respiratory syndrome coronavirus 2, HeLa-ACE2, read-out: HelaACE2 EC50
[10] = M2 (h) (antagonist radioligand), test compound concentration 10 uM

## CC(C)C(Nc1ncnc2[nH]c(C(=O)NC3CCN(C)C3)cc12)c1ccc2c(c1)S(=O)(=O)CCC2 (stereo not drawn) [ASAP-0011198]
Mu (MOP) (h)
  inhibition at 10 µM: 7%
5-HT1A (h)
  inhibition at 10 µM: 14%
MERS-CoV
  EC50: > 5 µM
  EC90: > 5 µM
  perc_max_measured: 124.089% and 106.936%
  perc_min_measured: 88.282% and 84.091%
[1]
  clint: 9.3 uL/min/1E6 cells
  t_half: 145.0 min and 74.8 min
[1]; rat, hepatocytes
  hepatocyte CLint: 4.78 µL/min/1e6 cells
[2]; [4]
  perc_max_measured: 109.068%
[2]; [5]
  perc_max_measured: 108.327%
[2]; [6]
  perc_min_measured: 93.8%
[2]; [7]
  perc_min_measured: 87.557%
[2]; [8]
  EC50: > 20 µM
  EC90: > 20 µM
[2]; [9]
  EC50: > 20 µM
[3]
  t_half: 88.3 min
[3]; Sprague-Dawley (SD), liver microsomes
  microsomal CLint: 7.85 µL/min/mg
V1a (h)
  inhibition at 10 µM: 6%
KV channel
  perc_inhibition (% inhibition of the binding of a ligand specific for each target): 2%
Human CHRM2 (M2); CEREP panel
  off-target activity at human CHRM2, in words: moderate
Human CHRM2 (M2); [10]
  inhibition at 10 µM: 52%
M1 (h)
  inhibition at 10 µM: 17%
Dopamine transporter (h)
  inhibition at 10 µM: 22%
CCK1 (CCKA) (h)
  inhibition at 10 µM: 7%

## Cn1ncc(-c2cc3c(N[C@@H](c4ccc5c(n4)OCCO5)C(C)(C)C)ncnc3[nH]2)c1C#N [ASAP-0011221]
Mu (MOP) (h)
  perc_inhibition (% inhibition of the binding of a ligand specific for each target): 28%
5-HT1A (h)
  perc_inhibition (% inhibition of the binding of a ligand specific for each target): 15%
[1]
  clint: 185.0 uL/min/1E6 cells
  t_half: 3.76 min
In vitro
  CC50 at 24 h: > 20 µM
[2]; [4]
  perc_max_measured: 101.751%
[2]; [5]
  perc_max_measured: 108.122%
[2]; [6]
  perc_min_measured: 4.671%
[2]; [7]
  perc_min_measured: 8.006%
[2]; HeLa-ACE2 SARS-CoV-2 antiviral effect without P-gp inhibitor, read-out: ec50
  EC50: 1.49 µM and 1.6 µM
[2]; HeLa-ACE2 SARS-CoV-2 antiviral effect without P-gp inhibitor, read-out: ec90
  EC90: > 20 µM
[3]
  clint: 129.0 µL/min/mg
  t_half: 5.38 min
V1a (h)
  perc_inhibition (% inhibition of the binding of a ligand specific for each target): 57%
KV channel
  perc_inhibition (% inhibition of the binding of a ligand specific for each target): 5%
Human CHRM2 (M2); [10]
  perc_inhibition (% inhibition of the binding of a ligand specific for each target): 25%
M1 (h)
  perc_inhibition (% inhibition of the binding of a ligand specific for each target): 13%
Dopamine transporter (h)
  perc_inhibition (% inhibition of the binding of a ligand specific for each target): 50%
CCK1 (CCKA) (h)
  perc_inhibition (% inhibition of the binding of a ligand specific for each target): 4%

## Cc1nn(C)cc1-c1cc2c(NC(c3ccc4c(c3)S(=O)(=O)CCC4)C(C)C)ncnc2[nH]1 (stereo not drawn) [ASAP-0011446]
Mu (MOP) (h)
  inhibition at 10 µM: 28%
5-HT1A (h)
  inhibition at 10 µM: 10%
MERS-CoV
  EC50: > 5 µM
  EC90: > 5 µM
  perc_max_measured: 103.374% and 130.763%
  perc_min_measured: 64.505% and 89.964%
[2]; [4]
  perc_max_measured: 111.189%
[2]; [5]
  perc_max_measured: 120.747%
[2]; [6]
  perc_min_measured: 56.402%
[2]; [7]
  perc_min_measured: 82.491%
[2]; [8]
  EC50: > 20 µM
  EC90: > 20 µM
[2]; [9]
  EC50: > 20 µM
V1a (h)
  inhibition at 10 µM: 14%
KV channel
  perc_inhibition (% inhibition of the binding of a ligand specific for each target): 1%
Human CHRM2 (M2); [10]
  inhibition at 10 µM: 5%
M1 (h)
  inhibition at 10 µM: 11%
Dopamine transporter (h)
  inhibition at 10 µM: 13%
CCK1 (CCKA) (h)
  inhibition at 10 µM: -8%

— doi:10.1101/2024.08.19.608619, “Discovery of potent SARS-CoV-2 nsp3 macrodomain inhibitors uncovers lack of translation to cellular antiviral response” (bioRxiv, 2024)
